Where two headings read alike, the source gives them in different places.
Experiments:
B/Florida/04/2006 = test: Antiviral activity (drug efficacy evaluation by concentration) against B/Florida/04/2006; type: cell-based, B type influenza virus
[1] = test system: A/California/07/2009 (H1N1); test: Antiviral activity (drug efficacy evaluation by concentration) against A/California/07/2009 (H1N1); type: cell-based, A type influenza virus; conditions: Influenza A virus
A/Perth/16/2009 (H3N2) = test: Antiviral activity (drug efficacy evaluation by concentration) against A/Perth/16/2009 (H3N2); type: cell-based, A type influenza virus; conditions: Influenza A virus
[2] = read-out: EC50 B/Florida/04/2006, B/Florida/04/2006
[3] = H1N1, A/California/07/2009 (H1N1), read-out: EC50 A/California/07/2009 (H1N1)
[4] = H3N2, A/Perth/16/2009 (H3N2), read-out: EC50 A/Perth/16/2009 (H3N2)
[5] = CC50 B/Florida/04/2006, cytotoxicity in the B/Florida/04/2006 assay
[6] = CC50, third EC50/CC50 column pair (c7), beside the EC50 of c6

Structure (SMILES): Brc1ccc(Cc2nnc(SCc3ccccc3-c3ccccc3)o2)cc1 [Compound 22, 2-(([1,1′-biphenyl]-2-ylmethyl)thio)-5-(4-bromobenzyl)-1,3,4-oxadiazole]
- EC50 (B/Florida/04/2006; [2]): 4.88 µM
- EC50 [1, 3]: 4.9 µM
- EC50 (A/Perth/16/2009 (H3N2); [4]): 5 µM
- CC50 (in vitro; [5]): > 50 µM

Structure (SMILES): Cc1nn(Cc2nnc(SCc3ccccc3C(C)C)o2)c(C)c1Br [Compound 23, 2-((4-bromo-3,5-dimethyl-1H-pyrazol-1-yl)methyl)-5-((2-isopropylbenzyl)thio)-1,3,4-oxadiazole]
- EC50 (B/Florida/04/2006; [2]): 0.82 µM
- EC50 [1, 3]: 0.6 µM
- EC50 (A/Perth/16/2009 (H3N2); [4]): 1.1 µM
- CC50 (in vitro; [5]): 14.2 µM

Structure (SMILES): Cc1nn(Cc2nnc(SC(c3ccccc3)c3ccccc3)o2)c(C)c1Br [Compound 25, 2-(benzhydrylthio)-5-((4-bromo-3,5-dimethyl-1H-pyrazol-1-yl)methyl)-1,3,4-oxadiazole]
- EC50 (B/Florida/04/2006; [2]): 5.18 µM
- EC50 [1, 3]: 2.5 µM
- EC50 (A/Perth/16/2009 (H3N2); [4]): 2 µM
- CC50 (in vitro; [5]): 9.4 µM

Structure (SMILES): Cc1ccccc1CCSc1nnc(Cn2nc(C)c(Br)c2C)o1 [Compound 26, 2-((4-bromo-3,5-dimethyl-1H-pyrazol-1-yl)methyl)-5-((2-methylphenethyl)thio)-1,3,4-oxadiazole]
- EC50 (B/Florida/04/2006; [2]): 36.2 µM
- EC50 [1, 3]: 31.2 µM
- EC50 (A/Perth/16/2009 (H3N2); [4]): 29.4 µM
- CC50 (in vitro; [5]): > 50 µM

Structure (SMILES): c1ccc(-c2ccccc2CSc2nnc(Cc3ccccn3)o2)cc1 [Compound 27, 2-(([1,1′-biphenyl]-2-ylmethyl)thio)-5-(pyridin-2-ylmethyl)-1,3,4-oxadiazole]
- EC50 (B/Florida/04/2006; [2]): 13.4 µM
- EC50 [1, 3]: 8.7 µM
- EC50 (A/Perth/16/2009 (H3N2); [4]): 6.8 µM
- CC50 (in vitro; [5]): > 50 µM

Structure (SMILES): c1ccc(-c2cnn(Cc3nnc(SCc4ccccc4-c4ccccc4)o3)c2)cc1 [Compound 30, 2-(([1,1′-biphenyl]-2-ylmethyl)thio)-5-((4-phenyl-1H-pyrazol-1-yl)methyl)-1,3,4-oxadiazole]
- EC50 (B/Florida/04/2006; [2]): > 50 µM
- EC50 [1, 3]: > 50 µM
- EC50 (A/Perth/16/2009 (H3N2); [4]): 13 µM
- CC50 (in vitro; [5]): > 50 µM

Structure (SMILES): Cc1nn(Cc2nnc(SCc3ccccc3-n3cccc3)o2)c(C)c1Br [Compound 31, 2-((2-(1H-pyrrol-1-yl)benzyl)thio)-5-((4-bromo-3,5-dimethyl-1H-pyrazol-1-yl)methyl)-1,3,4-oxadiazole]
- EC50 (B/Florida/04/2006; [2]): 3.57 µM
- EC50 [1, 3]: 1.8 µM
- EC50 (A/Perth/16/2009 (H3N2); [4]): 2.3 µM
- CC50 (in vitro; [5]): 11.8 µM

Structure (SMILES): Cc1nn(Cc2nnc(SCc3ccccc3-c3ccoc3)o2)c(C)c1Br [Compound 34, 2-((4-bromo-3,5-dimethyl-1H-pyrazol-1-yl)methyl)-5-((2-(furan-3-yl)benzyl)thio)-1,3,4-oxadiazole]
- EC50 (B/Florida/04/2006; [2]): 4.48 µM
- EC50 [1, 3]: 1.4 µM
- EC50 (A/Perth/16/2009 (H3N2); [4]): 1.8 µM
- CC50 (in vitro; [5]): 22.8 µM

Structure (SMILES): Cc1nn(Cc2nnc(SCc3ccccc3Cc3ccccc3)o2)c(C)c1Br [Compound 38, 2-((2-benzylbenzyl)thio)-5-((4-bromo-3,5-dimethyl-1H-pyrazol-1-yl)methyl)-1,3,4-oxadiazole]
- EC50 (B/Florida/04/2006; [2]): 1.18 µM
- EC50 [1, 3]: 1.03 µM
- EC50 (A/Perth/16/2009 (H3N2); [4]): 1.04 µM
- CC50 (in vitro; [5]): > 50 µM

Structure (SMILES): Cc1nc2ccccc2n1Cc1nnc(SCc2ccccc2-c2ccccc2)o1 [Compound 41, 2-(([1,1′-biphenyl]-2-ylmethyl)thio)-5-((2-methyl-1H-benzo[d]imidazol-1-yl)methyl)-1,3,4-oxadiazole]
- EC50 (B/Florida/04/2006; [2]): 1.21 µM
- EC50 [1, 3]: 0.69 µM
- EC50 (A/Perth/16/2009 (H3N2); [4]): 0.91 µM
- CC50 (in vitro; [5]): 19.7 µM

Structure (SMILES): Cc1nn(Cc2nnc(N(C)Cc3ccccc3-c3ccccc3)o2)c(C)c1Br [Compound 44, N-([1,1′-biphenyl]-2-ylmethyl)-5-((4-bromo-3,5-dimethyl-1H-pyrazol-1-yl)methyl)-N-methyl-1,3,4-oxadiazol-2-amine]
- EC50 (B/Florida/04/2006; [2]): > 50 µM
- EC50 [1, 3]: > 50 µM
- EC50 (A/Perth/16/2009 (H3N2); [4]): 29.4 µM
- CC50 (in vitro; [5]): > 50 µM

Structure (SMILES): CC(=O)N(Cc1ccccc1-c1ccccc1)c1nnc(Cn2nc(C)c(Br)c2C)o1 [Compound 45, N-([1,1′-biphenyl]-2-ylmethyl)-N-(5-((4-bromo-3,5-dimethyl-1H-pyrazol-1-yl)methyl)-1,3,4-oxadiazol-2-yl)acetamide]
- EC50 (B/Florida/04/2006; [2]): 23.8 µM
- EC50 [1, 3]: 26.2 µM
- EC50 (A/Perth/16/2009 (H3N2); [4]): 25.8 µM
- CC50 (in vitro; [5]): 33.5 µM

Structure (SMILES): Cc1nn(Cc2nnc(Cc3cccc(Cl)c3)o2)c(C)c1Br [Compound 46, 2-((4-bromo-3,5-dimethyl-1H-pyrazol-1-yl)methyl)-5-(3-chlorobenzyl)-1,3,4-oxadiazole]
- EC50 (B/Florida/04/2006; [2]): 27.5 µM
- EC50 [1, 3]: 24.3 µM
- EC50 (A/Perth/16/2009 (H3N2); [4]): 21.8 µM
- CC50 (in vitro; [5]): > 50 µM

Structure (SMILES): Cc1nn(CCc2nnc(SCc3ccccc3-c3ccccc3)o2)c(C)c1Br [Compound 49, 2-(([1,1′-biphenyl]-2-ylmethyl)thio)-5-(2-(4-bromo-3,5-dimethyl-1H-pyrazol-1-yl)ethyl)-1,3,4-oxadiazole]
- EC50 (B/Florida/04/2006; [2]): > 50 µM
- EC50 [1, 3]: > 50 µM
- EC50 (A/Perth/16/2009 (H3N2); [4]): > 50 µM
- CC50 (in vitro; [5]): > 50 µM

Structure (SMILES): Cc1nn(Cc2nnc(/C=C/c3ccccc3C(C)C)o2)c(C)c1Br [Compound 50, (E)-2-((4-bromo-3,5-dimethyl-1H-pyrazol-1-yl)methyl)-5-(2-isopropylstyryl)-1,3,4-oxadiazole]
- EC50 (B/Florida/04/2006; [2]): 24.5 µM
- EC50 [1, 3]: 18.7 µM
- EC50 (A/Perth/16/2009 (H3N2); [4]): 11.4 µM
- CC50 (in vitro; [5]): > 50 µM

Structure (SMILES): Brc1ccc(OCc2nnc(SCc3ccccc3-c3ccccc3)o2)cc1 [Compound 58, 2-(([1,1′-biphenyl]-2-ylmethyl)thio)-5-((4-bromophenoxy)methyl)-1,3,4-oxadiazole]
- EC50 (B/Florida/04/2006; [2]): > 50 µM
- EC50 [1, 3]: > 50 µM
- EC50 (A/Perth/16/2009 (H3N2); [4]): 44.3 µM
- CC50 (in vitro; [5]): > 50 µM

Structure (SMILES): CC(c1ccccc1)c1nnc(SCc2ccccc2-c2ccccc2)o1 (stereo not drawn) [Compound 73, 2-(([1,1′-biphenyl]-2-ylmethyl)thio)-5-(1-phenylethyl)-1,3,4-oxadiazole]
- EC50 (B/Florida/04/2006; [2]): > 50 µM
- EC50 [1, 3]: 17.2 µM
- EC50 (A/Perth/16/2009 (H3N2); [4]): 41.7 µM
- CC50 (in vitro; [5]): > 50 µM

Structure (SMILES): FC(F)(c1ccc(Br)cc1)c1nnc(SCc2ccccc2-c2ccccc2)o1 [Compound 74, 2-(([1,1′-biphenyl]-2-ylmethyl)thio)-5-((4-bromophenyl)difluoromethyl)-1,3,4-oxadiazole]
- EC50 (B/Florida/04/2006; [2]): > 50 µM
- EC50 [1, 3]: 21.2 µM
- EC50 (A/Perth/16/2009 (H3N2); [4]): 11 µM
- CC50 (in vitro; [5]): > 50 µM

Structure (SMILES): Brc1ccc(Nc2nnc(/C=C/c3ccccc3Br)o2)cc1 [Compound 83, (E)-N-(4-bromophenyl)-5-(2-bromostyryl)-1,3,4-oxadiazol-2-amine]
- EC50 (B/Florida/04/2006): 4.63 µM
- EC50 ([1]; H1N1, read-out: EC50): 4.25 µM
- EC50 (A/Perth/16/2009 (H3N2); H3N2, read-out: EC50): 4.75 µM
- CC50 (in vitro; CC50, beside the EC50 of c2): > 50 µM
- CC50 (in vitro; CC50, beside the EC50 of c4): > 50 µM
- CC50 (in vitro; [6]): > 50 µM

Structure (SMILES): CC(C)c1ccccc1CCc1nnc(Cc2ccc(Br)cc2)o1 [Compound 92, 2-(4-bromobenzyl)-5-(2-isopropylphenethyl)-1,3,4-oxadiazole]
- EC50 (B/Florida/04/2006): 6.59 µM
- EC50 ([1]; H1N1, read-out: EC50): 7.17 µM
- EC50 (A/Perth/16/2009 (H3N2); H3N2, read-out: EC50): 6.42 µM
- CC50 (in vitro; CC50, beside the EC50 of c2): > 50 µM
- CC50 (in vitro; CC50, beside the EC50 of c4): > 50 µM
- CC50 (in vitro; [6]): > 50 µM

Structure (SMILES): CC(C)c1ccccc1CCc1nnc(Cc2ccc(OC(F)(F)F)cc2)o1 [Compound 93, 2-(2-isopropylphenethyl)-5-(4-(trifluoromethoxy)benzyl)-1,3,4-oxadiazole]
- EC50 (B/Florida/04/2006): 45.1 µM
- EC50 ([1]; H1N1, read-out: EC50): 22.1 µM
- EC50 (A/Perth/16/2009 (H3N2); H3N2, read-out: EC50): 31.5 µM
- CC50 (in vitro; CC50, beside the EC50 of c2): > 50 µM
- CC50 (in vitro; CC50, beside the EC50 of c4): > 50 µM
- CC50 (in vitro; [6]): > 50 µM

Structure (SMILES): Cc1cc(C)cc(Cc2nnc(CCc3ccccc3C(C)C)o2)c1 [Compound 94, 2-(3,5-dimethylbenzyl)-5-(2-isopropylphenethyl)-1,3,4-oxadiazole]
- EC50 (B/Florida/04/2006): > 50 µM
- EC50 ([1]; H1N1, read-out: EC50): 37.8 µM
- EC50 (A/Perth/16/2009 (H3N2); H3N2, read-out: EC50): 43.4 µM
- CC50 (in vitro; CC50, beside the EC50 of c2): > 50 µM
- CC50 (in vitro; CC50, beside the EC50 of c4): > 50 µM
- CC50 (in vitro; [6]): > 50 µM

Reference: patent publication US11149033B2, “Heteroaryl compound, enantiomer, diastereomer or pharmaceutically acceptable salt thereof, and antiviral composition containing same as active ingredient” (priority 2016, dated 2021)
